Reference: ChEMBL document CHEMBL1201862, “PubChem BioAssay data set” (2004)
Active and inactive are the calls of the source.

How the values were obtained:
[1] = NIH3T3 cell viability loss – ATP luminescence, mouse fibroblasts, counter-screen, dose response (AID 2010); assay type: functional, cell-based;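 also: cells exposed to compound for about 90 hours before reading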
[2] = Trypanosoma cruzi growth suppression in host cells – NIH3T3 host cells, beta-gal luminescence, confirmation (AID 2044); assay type: functional, cell-based;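 also: intracellular parasites grown in NIH/3T3 mouse fibroblasts as host cells; luminescent beta-galactosidase reporter signal from transgenic T. cruzi replicating inside host cells; inhibitors lower the luminescence signal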
[3] = tested on: INS1; assay: INS-1E survival protection against cytokine death – cell-based, luminescence, retest, dose response (AID 449756); assay type: functional; details: Rattus norvegicus;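 also: cell death triggered by IL-1 beta plus TNF-alpha plus IFN-gamma mixture; protective hits raise ATP signal compared with cytokine alone wells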
[4] = biological target: Cytochrome P450 2C9 (Homo sapiens, UniProt P11712)
Cytochrome P450 2C9, sequence (P11712 whole entry): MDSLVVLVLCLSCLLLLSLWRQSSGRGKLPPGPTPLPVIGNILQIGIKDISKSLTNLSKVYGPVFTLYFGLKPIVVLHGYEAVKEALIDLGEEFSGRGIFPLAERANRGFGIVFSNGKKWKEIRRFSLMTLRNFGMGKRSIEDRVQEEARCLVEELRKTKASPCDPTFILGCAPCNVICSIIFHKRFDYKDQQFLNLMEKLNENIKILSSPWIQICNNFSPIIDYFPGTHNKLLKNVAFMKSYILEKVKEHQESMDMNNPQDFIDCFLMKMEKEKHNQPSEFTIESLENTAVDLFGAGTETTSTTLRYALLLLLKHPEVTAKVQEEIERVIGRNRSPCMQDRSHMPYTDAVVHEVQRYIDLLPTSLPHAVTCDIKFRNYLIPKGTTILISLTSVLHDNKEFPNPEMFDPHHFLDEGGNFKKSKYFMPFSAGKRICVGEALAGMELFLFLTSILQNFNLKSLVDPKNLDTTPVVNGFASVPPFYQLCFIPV

[5] = biological target: Cytochrome P450 2C19 (Homo sapiens, UniProt P33261); assay: Cytochrome panel assay with activity outcomes. Panel member name: p450-cyp2c19 Compounds with AC50 equal or less than 10 uM are considered active; assay type: functional
Cytochrome P450 2C19, sequence (P33261 whole entry): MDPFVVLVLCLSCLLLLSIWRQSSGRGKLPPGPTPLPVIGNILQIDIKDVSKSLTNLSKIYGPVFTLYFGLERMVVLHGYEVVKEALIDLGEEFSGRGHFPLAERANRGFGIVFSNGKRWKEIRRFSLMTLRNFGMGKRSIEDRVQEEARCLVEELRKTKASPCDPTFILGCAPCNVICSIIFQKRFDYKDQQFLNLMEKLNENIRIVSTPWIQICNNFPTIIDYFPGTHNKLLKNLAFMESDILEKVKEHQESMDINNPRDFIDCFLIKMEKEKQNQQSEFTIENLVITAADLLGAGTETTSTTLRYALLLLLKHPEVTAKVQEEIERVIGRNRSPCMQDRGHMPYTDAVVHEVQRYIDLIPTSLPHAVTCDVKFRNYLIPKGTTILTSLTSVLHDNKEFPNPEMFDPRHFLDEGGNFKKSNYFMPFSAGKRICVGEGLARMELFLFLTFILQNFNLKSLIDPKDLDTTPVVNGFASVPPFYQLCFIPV

[6] = biological target: Cytochrome P450 2D6 (Homo sapiens, UniProt P10635);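 also: CYP2D6 member of a cytochrome P450 panel assay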
Cytochrome P450 2D6, sequence (P10635 whole entry): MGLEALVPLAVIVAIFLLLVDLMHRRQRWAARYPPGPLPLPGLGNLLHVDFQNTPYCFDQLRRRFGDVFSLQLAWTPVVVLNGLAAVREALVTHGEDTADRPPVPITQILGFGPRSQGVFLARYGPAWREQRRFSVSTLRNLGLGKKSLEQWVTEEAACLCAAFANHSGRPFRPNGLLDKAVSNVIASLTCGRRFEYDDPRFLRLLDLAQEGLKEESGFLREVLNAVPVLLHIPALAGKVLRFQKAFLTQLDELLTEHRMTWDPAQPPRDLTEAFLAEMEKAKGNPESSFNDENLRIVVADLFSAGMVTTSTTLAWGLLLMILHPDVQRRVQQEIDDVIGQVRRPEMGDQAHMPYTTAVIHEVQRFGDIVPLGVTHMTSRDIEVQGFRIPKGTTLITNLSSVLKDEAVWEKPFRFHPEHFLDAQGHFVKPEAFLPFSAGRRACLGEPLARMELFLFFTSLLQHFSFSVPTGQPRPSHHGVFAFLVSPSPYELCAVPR

[7] = Luminescence Cell-Based Dose Response HTS to Identify Inhibitors of 5'UTR Stem-Loop Driven Prion Protein mRNA Translation in H4 Neuroglioblastoma Cells. [Related pubchem assays: 1827 (Project Summary), 1813 (Primary HTS)]; assay type: functional
[8] = alpha-synuclein stem-loop luciferase translation blockers – H4 neuroglioma cells, luminescence, confirmation (AID 1988); assay type: functional, cell-based
[9] = luciferase reporter signal suppression in cells – H4 neuroglioma cells, luminescence, dose response (AID 1990); assay type: functional, cell-based
[10] = tested on: Streptococcus; assay: GAS UMAA2166 growth inhibition – luminescence, BacTiterGlo, counter-screen for streptokinase expression inhibitor project, dose response (AID 1915); assay type: functional, organism-based;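 also: potency for reduction of bacterial viability or growth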
[11] = tested on: Streptococcus sp. 'group A'; assay: Streptococcus pyogenes SK(-)GAS viability under kanamycin – luminescence, BacTiterGlo, confirmation, counter-screen for streptokinase expression inhibitor project, dose response (AID 1900); assay type: functional, organism-based

For COc1ccc(Cc2noc(CN3CCCN(C4Cc5ccccc5C4)CC3)n2)cc1OC, the EC50 [1] was > 60 µM (not active) and the EC50 [2] was 1.3 µM (active).
With CCN(CC)c1ccc(/N=C/c2cc(Br)ccc2O)cc1 the EC50 [1] was > 60 µM (inconclusive) and the EC50 [2] was 4.39 µM (active).
For COc1cc(C(=O)NC(=S)NNC(=O)c2cnccn2)cc(OC)c1OC, the AC50 [3] was 1.27 µM (active).
For COCCn1c(=O)c(C)nc2cnc(Oc3ccc(OC)cc3)nc21, the AC50 [4] was 20 µM (inconclusive) and the AC50 ([5]; read-out: AC50) was 39.8 µM (inconclusive).
With N#Cc1cccc(NC(=O)N2CCCC3(CCN(C(=O)c4ccncc4)CC3)C2)c1 the AC50 [6] was 25.1 µM (inconclusive).
In the case of CC1CCN(C(NC(=O)c2ccco2)C(=O)c2ccccc2)CC1 (stereo unspecified), the AC50 [6] is reported as 15.8 µM (inconclusive).
For CC(=O)n1cc([C@H]2C=C(C(=O)N3CCN(Cc4ccccc4)CC3)O[C@@H](OCc3ccc(CO)cc3)C2)c2ccccc21, the EC50 [1] was > 30 µM (not active) and the EC50 [2] was 0.435 µM (active).
In the case of O=c1c(Cc2ccccc2)c(O)nc2n1CCS2, the AC50 [4] is reported as 14.1 µM (inconclusive) and the AC50 ([5]; read-out: AC50) is reported as 14.1 µM (inconclusive).
With COc1cccc(-n2c(CN3CCN(c4cccc(C)c4)C(C)C3)nc3ccc([N+](=O)[O-])cc3c2=O)c1 (stereo unspecified) the EC50 [1] was > 60 µM (not active) and the EC50 [2] was 1.91 µM (active).
With CN1c2ccc([N+](=O)[O-])cc2N(C)C1(C)c1ccccc1 (stereo unspecified) the EC50 [1] was > 60 µM (not active) and the EC50 [2] was 2.85 µM (active).
For CCN(CC)C(=O)C1CC(=O)N(c2ccc(OC)cc2)C1c1ccc(OC)cc1 (stereo unspecified), the AC50 ([5]; read-out: AC50) was 39.8 µM (inconclusive).
With O=C(Cn1ncc2c(=O)oc3ccccc3c21)N1CCCc2ccccc21 the EC50 [7] was 6.05 µM (active), the EC50 [8] was > 120 µM (not active) and the EC50 [9] was > 120 µM (not active).
For COc1ccc(CN2CCCC(CO)(Cc3ccc(F)cc3)C2)cc1C (stereo unspecified), the EC50 [1] was 9.58 µM (active) and the EC50 [2] was 0.64 µM (active).
In the case of COc1cc(C(=O)NCC(=O)N/N=C(C)\C=C\c2ccccc2)cc(OC)c1OC, the EC50 [7] is reported as 24.9 µM (active), the EC50 [8] is reported as > 120 µM (not active) and the EC50 [9] is reported as > 120 µM (not active).
In the case of Clc1ccccc1-c1nccc(NCCN2CCOCC2)n1, the AC50 [6] is reported as 12.6 µM (inconclusive).
In the case of Clc1ccccc1-c1nc(N2CCNCC2)c2ccccc2n1, the AC50 [6] is reported as 31.6 µM (inconclusive).
For COc1ccc(-c2ccc([C@H]3[C@@H]4C=CCC[C@@]4(C)C(=O)N3Cc3ccccc3)c(F)c2)cc1, the AC50 [3] was 13.2 µM (active).
In the case of O=c1cc(N2CCCCC2)c(-c2ccccc2)nn1Cc1ccc(F)cc1, the EC50 [1] is reported as 9.08 µM (active) and the EC50 [2] is reported as 2.17 µM (active).
For Cc1c(C(=O)N(Cc2ccccc2)C(C)C)oc2ccc(S(=O)(=O)N3CCOCC3)cc12, the AC50 [3] was 48 µM (active).
With C/C(=N\Nc1nc(-c2ccccn2)nc2ccccc12)c1ccc(F)cc1 the EC50 [7] was 3.74 µM (active), the AC50 [3] was 41.9 µM (active) and the EC50 [8] was 8.26 µM (active). The EC50 [9] was 9.76 µM (active).
In the case of CC(=O)NC(C)c1cc(Cl)c2cccnc2c1O (stereo unspecified), the AC50 [3] is reported as 4.08 µM (active).
In the case of Cc1cc(C)c2c(ccc3cccc[n+]32)c1.[O-][Cl+3]([O-])([O-])[O-], the AC50 [3] is reported as 4.61 µM (active).
For O=C1CC(c2ccc3c(c2)OCO3)CN1 (stereo unspecified), the AC50 ([5]; read-out: AC50) was 39.8 µM (inconclusive).
In the case of CN(C)CCO[C@@H](c1ccc(Cl)cc1)c1ccccn1 [ROTOXAMINE], the AC50 [6] is reported as 12.6 µM (inconclusive) and the AC50 [5] is reported as “inconclusive”.
With COc1cc2c3cc1Oc1cc(ccc1O)C[C@@H]1c4c(cc(OC)c(O)c4Oc4ccc(cc4)C[C@H]3[N+](C)(C)CC2)CC[N+]1(C)C the AC50 [5] was “inconclusive”.
For NC(=O)c1[nH]cnc1N, the EC50 [1] was 4.94 µM (active) and the EC50 [2] was > 30 µM (not active).
In the case of CCN(CC)c1ccc2c(Cl)cc(=O)oc2c1, the AC50 [4] is reported as 31.6 µM (inconclusive).
With COc1ccccc1N1CCN(c2nc(C)nc3c2oc2ccccc23)CC1 the EC50 [7] was 0.842 µM (active), the EC50 [8] was 0.193 µM (active) and the EC50 [9] was 10.3 µM (active).
For O=C(N/N=C/c1ccc([N+](=O)[O-])o1)c1ccc2c(c1)OCO2, the EC50 [1] was > 30 µM (not active) and the EC50 [2] was 0.172 µM (active).
With Cc1noc(/C=C/N(C)C)c1S(=O)(=O)N1CCCC(C(=O)NC2CCCCC2)C1 (stereo unspecified) the EC50 [1] was 6.5 µM (active) and the EC50 [2] was 0.484 µM (active).
In the case of Cc1ccc(C(=O)Nc2cc3c(oc2=O)CCCC3=O)cc1, the AC50 [6] is reported as 0.01 µM (inconclusive).
For Cc1ccccc1NC(=O)NCC1CCN(Cc2cccc(Cl)c2)CC1, the EC50 [1] was > 30 µM (not active) and the EC50 [2] was 1.14 µM (active).
For CS(=O)(=O)NCCSCc1c(Cl)cccc1Cl, the EC50 [1] was > 60 µM (inconclusive) and the EC50 [2] was 36.9 µM (active).
For O=C(CON1C(=O)c2ccccc2C1=O)c1ccccc1, the AC50 [4] was 6.31 µM (inconclusive).
For COc1ncc2nc(-c3cccs3)c(=O)n(Cc3ccc(F)cc3)c2n1, the AC50 [6] was 0.398 µM (inconclusive).
For O=C(CCc1ccc(S(=O)(=O)NC2CCCCC2)cc1)N(Cc1ccccc1)Cc1ccccc1, the AC50 [6] was 12.6 µM (inconclusive).
With COc1cccc(Nc2ncc3nc(-c4cccs4)c(=O)n(C[C@H]4CCCO4)c3n2)c1 the AC50 [6] was 15.8 µM (inconclusive).
In the case of Cc1ccc2cc(CN(Cc3ccco3)C(=O)NC3CCCCC3)c(O)nc2c1C, the EC50 [7] is reported as 16.4 µM (active), the EC50 [8] is reported as 13.6 µM (active) and the EC50 [9] is reported as 15.9 µM (active).
For COc1cccc2c1OC1(C)CC2NC(=O)N1Cc1ccccc1 (stereo unspecified), the EC50 [7] was 7.38 µM (active), the EC50 [8] was 16.1 µM (active) and the EC50 [9] was 21.6 µM (active).
For COc1cccc(CC2(CO)CCCN(Cc3ccc(CN4CCCCC4)s3)C2)c1 (stereo unspecified), the EC50 [1] was 9.85 µM (active) and the EC50 [2] was 0.253 µM (active).
For COc1ccc(OCCSc2nc[nH]n2)cc1, the AC50 [4] was 22.4 µM (inconclusive).
With Cc1cccc(N(C)S(=O)(=O)c2ccc3[nH]c(=O)c(=O)[nH]c3c2)c1 the AC50 ([5]; read-out: AC50) was 20 µM (inconclusive).
With Cc1c(CCO)c(=O)n(C)n1C(=O)c1ccc(F)cc1 the AC50 [6] was 22.4 µM (inconclusive).
With Cc1cc(C)cc(N(C(=O)C2CCCC2)C2C=CS(=O)(=O)C2)c1 (stereo unspecified) the AC50 [4] was 35.5 µM (inconclusive) and the AC50 ([5]; read-out: AC50) was 17.8 µM (inconclusive).
With c1ccc(CCc2cccnc2)nc1 the AC50 [6] was 7.94 µM (inconclusive).
In the case of O=C(N=Nc1c(O)[nH]c2ccc(Br)cc12)c1cc(-c2cccs2)nc2ccccc12, the EC50 [7] is reported as 16.6 µM (active), the EC50 [8] is reported as 9.7 µM (active) and the EC50 [9] is reported as > 120 µM (not active). For the same compound, the EC50 [1] was > 60 µM (not active) and the EC50 [2] was 1.41 µM (active).
In the case of COC(=O)[C@@]1(Cc2ccc(F)cc2)[C@H]2c3cc(C(=O)N(C)C)n(CCCNc4ccc(C(F)(F)F)cc4Cl)c3C[C@H]2CN1C(=O)c1ccccc1, the AC50 ([5]; read-out: AC50) is reported as 25.1 µM (inconclusive).
With CCc1c2c(nc3ccc(OC)cc13)COC2 the AC50 [6] was 20 µM (inconclusive) and the AC50 ([5]; read-out: AC50) was 20 µM (inconclusive).
With Fc1cccc(Cl)c1-c1nnc2ccc3ccccc3n12 the AC50 [3] was 10 µM (active).
For CN(Cc1ccco1)c1ncnc2ccc(-c3ccccc3C(F)(F)F)cc12, the AC50 [4] was 1 µM (inconclusive).
For CC(C)c1ccc(Cn2ccc3c4c(N)nc(NC5CC5)nc4ccc32)cc1, the AC50 ([5]; read-out: AC50) was 31.6 µM (inconclusive).
For CCCn1c(-c2cccc([N+](=O)[O-])c2)nc2c1c(=O)[nH]c(=O)n2Cc1ccccc1, the EC50 [7] was > 120 µM (not active), the EC50 [8] was > 120 µM (not active) and the EC50 [9] was 17.5 µM (active).
In the case of Cc1cc(C)n(-c2nc(NC(C)(C)C)nc(NC(C)(C)C)n2)n1, the EC50 [10] is reported as 1.72 µM (active), the AC50 [3] is reported as 3.14 µM (active) and the AC50 [4] is reported as 8.91 µM (inconclusive). The AC50 [5] was “inconclusive” and the EC50 [11] was 0.694 µM (active).
With CC(=O)OC[C@@H]1O[C@H](C/C=N\O[C@@H](C)c2cn([C@H]3COC[C@H]3O)nn2)C=C[C@@H]1OC(C)=O the AC50 [5] was “inconclusive”.
For COc1ccc(OC)c(-c2nc(CN3CCCCC3c3cccnc3)c(C)o2)c1 (stereo unspecified), the EC50 [1] was > 60 µM (not active) and the EC50 [2] was 2.02 µM (active).
In the case of CCN(CC)CC#CCC(O)(c1ccccc1)C1CCCC1 (stereo unspecified), the EC50 [1] is reported as > 60 µM (not active) and the EC50 [2] is reported as 0.52 µM (active).
With COc1ccc2[nH]c(C)c(CCN(Cc3cccs3)C(S)=Nc3ccc(F)cc3)c2c1 the EC50 [1] was > 60 µM (not active) and the EC50 [2] was 4.21 µM (active).
For O=C(Nc1ccc([N+](=O)[O-])cn1)c1cc(-c2cccc(Cl)c2)nc2ccccc12, the EC50 [1] was > 30 µM (not active) and the EC50 [2] was 0.809 µM (active).
For Cc1cccc(C(=O)N[C@H](C(=O)Nc2nc3ccc(S(C)(=O)=O)cc3s2)C(C)C)c1, the EC50 [7] was > 120 µM (not active), the EC50 [8] was > 120 µM (not active) and the EC50 [9] was > 120 µM (not active).
For CCC/C=C(\CCC)C(NC(=O)Oc1ccc(F)cc1)c1ccc(C(=O)OC)cc1 (stereo unspecified), the AC50 [4] was 39.8 µM (inconclusive).
For COc1ccc(CNC(=O)C(C)Sc2nc3ccccc3c(=O)n2CCCN2CCOCC2)cc1 (stereo unspecified), the EC50 [7] was > 120 µM (not active), the EC50 [8] was > 120 µM (not active) and the EC50 [9] was 23.9 µM (active).
In the case of CCCN(CCC)C(=S)NC(=O)c1ccc(Cl)cc1Cl, the AC50 [6] is reported as 10 µM (inconclusive).
